This passage reports IC50 results from patent publication US11826351B2, “Compounds useful as kinase inhibitors” (Loxo Oncology, Inc., priority 2015, dated 2023).

For experiment [1], the system named is OCI-Ly10 human DLBCL cells. Nature of the experiment: OCI-Ly10 anti-proliferative activity (Resazurin). The experiment is classed as cell-based. Conditions: Homo sapiens, OCI-Ly10, 72 h, OCI-Ly10 cells, 72 h compound treatment, Resazurin; read-out: Proliferation Assay OCI-Ly10-20% FBS. Put shortly: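 OCI-Ly10 human DLBCL cells, whose growth depends on NFκB signalling, were seeded at 7.5×10^3 cells per well in 96-well plates with a range of compound concentrations and kept at 37° C for 72 h. Resazurin was then added, and after 5 h fluorescence was read at 590 nm.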
Background: Resazurin is reduced to fluorescent resorufin, in cell work by metabolically active cells.

The target in experiment [2] is T1, Recombinant BTK^WT kinase (Homo sapiens, UniProt Q06187).
T1 construct: purchased Invitrogen
The experiment can be described thus: BTK WT binding affinity (LanthaScreen TR-FRET). To be noted: Kinase Tracer 236, 5 h incubation. Put shortly:
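Tracer-displacement TR-FRET: 2.5 nM recombinant BTK^WT, 2 nM Eu anti-His antibody and 15 nM Kinase Tracer 236 incubated with varying inhibitor concentrations for 5 h in Kinase Buffer A. Signal read at 340 nm excitation, 615/665 nm emission; IC50 from variable-slope log[inhibitor]–response fit.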
On the technique in general: TR-FRET usually uses a lanthanide donor and a delayed reading to cut background.

Experiment [3] concerns the target T2, Recombinant BTK^C481S kinase (Homo sapiens, UniProt Q06187, C481S).
T2 construct: purchased SignalChem
Nature of the experiment: BTK C481S binding affinity (LanthaScreen TR-FRET). To be noted: Kinase Tracer 236, 5 h incubation. Put shortly: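 BTK C481S tracer-displacement TR-FRET: 5 nM His-tagged kinase, 2 nM Eu anti-His antibody and 30 nM Kinase Tracer 236 incubated with titrated inhibitor for 5 h in Kinase Buffer A. Read at 340 nm excitation, 615/665 nm emission; IC50 from variable-slope log[inhibitor]–response fit.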

In a further experiment the target is T3, Recombinant EGFR (Homo sapiens, UniProt P00533).
T3 construct: purchased Invitrogen
Nature of the experiment: EGFR binding affinity (LanthaScreen TR-FRET). To be noted: Kinase Tracer 199, 5 h incubation. Put shortly:
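TR-FRET binding (LanthaScreen) with recombinant EGFR; signal measured across a compound concentration range. IC50 obtained by fitting RFU against log[inhibitor] to a variable-slope model.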

T2 sequence (Q06187 whole entry C481S): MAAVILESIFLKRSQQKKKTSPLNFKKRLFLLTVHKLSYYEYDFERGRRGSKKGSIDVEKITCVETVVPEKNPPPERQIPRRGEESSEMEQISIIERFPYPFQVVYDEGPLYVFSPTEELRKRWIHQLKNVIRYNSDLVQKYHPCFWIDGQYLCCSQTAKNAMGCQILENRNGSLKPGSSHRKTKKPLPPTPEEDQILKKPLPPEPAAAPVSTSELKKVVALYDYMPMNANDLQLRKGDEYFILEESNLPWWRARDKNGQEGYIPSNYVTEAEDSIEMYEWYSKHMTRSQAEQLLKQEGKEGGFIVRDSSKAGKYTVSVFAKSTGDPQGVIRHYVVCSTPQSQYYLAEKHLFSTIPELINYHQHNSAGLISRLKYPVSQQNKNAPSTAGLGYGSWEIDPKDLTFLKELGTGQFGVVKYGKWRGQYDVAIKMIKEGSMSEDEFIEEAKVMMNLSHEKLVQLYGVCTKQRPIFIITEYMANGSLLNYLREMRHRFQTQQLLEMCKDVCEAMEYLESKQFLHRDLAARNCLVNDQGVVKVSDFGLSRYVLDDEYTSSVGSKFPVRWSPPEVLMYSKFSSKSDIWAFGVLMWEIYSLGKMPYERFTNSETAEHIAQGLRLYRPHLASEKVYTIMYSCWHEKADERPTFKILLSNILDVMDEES
T1 sequence (Q06187 whole entry): as the sequence (Q06187 whole entry C481S) above, with S481C counted along it
T3 sequence (P00533 25-1210): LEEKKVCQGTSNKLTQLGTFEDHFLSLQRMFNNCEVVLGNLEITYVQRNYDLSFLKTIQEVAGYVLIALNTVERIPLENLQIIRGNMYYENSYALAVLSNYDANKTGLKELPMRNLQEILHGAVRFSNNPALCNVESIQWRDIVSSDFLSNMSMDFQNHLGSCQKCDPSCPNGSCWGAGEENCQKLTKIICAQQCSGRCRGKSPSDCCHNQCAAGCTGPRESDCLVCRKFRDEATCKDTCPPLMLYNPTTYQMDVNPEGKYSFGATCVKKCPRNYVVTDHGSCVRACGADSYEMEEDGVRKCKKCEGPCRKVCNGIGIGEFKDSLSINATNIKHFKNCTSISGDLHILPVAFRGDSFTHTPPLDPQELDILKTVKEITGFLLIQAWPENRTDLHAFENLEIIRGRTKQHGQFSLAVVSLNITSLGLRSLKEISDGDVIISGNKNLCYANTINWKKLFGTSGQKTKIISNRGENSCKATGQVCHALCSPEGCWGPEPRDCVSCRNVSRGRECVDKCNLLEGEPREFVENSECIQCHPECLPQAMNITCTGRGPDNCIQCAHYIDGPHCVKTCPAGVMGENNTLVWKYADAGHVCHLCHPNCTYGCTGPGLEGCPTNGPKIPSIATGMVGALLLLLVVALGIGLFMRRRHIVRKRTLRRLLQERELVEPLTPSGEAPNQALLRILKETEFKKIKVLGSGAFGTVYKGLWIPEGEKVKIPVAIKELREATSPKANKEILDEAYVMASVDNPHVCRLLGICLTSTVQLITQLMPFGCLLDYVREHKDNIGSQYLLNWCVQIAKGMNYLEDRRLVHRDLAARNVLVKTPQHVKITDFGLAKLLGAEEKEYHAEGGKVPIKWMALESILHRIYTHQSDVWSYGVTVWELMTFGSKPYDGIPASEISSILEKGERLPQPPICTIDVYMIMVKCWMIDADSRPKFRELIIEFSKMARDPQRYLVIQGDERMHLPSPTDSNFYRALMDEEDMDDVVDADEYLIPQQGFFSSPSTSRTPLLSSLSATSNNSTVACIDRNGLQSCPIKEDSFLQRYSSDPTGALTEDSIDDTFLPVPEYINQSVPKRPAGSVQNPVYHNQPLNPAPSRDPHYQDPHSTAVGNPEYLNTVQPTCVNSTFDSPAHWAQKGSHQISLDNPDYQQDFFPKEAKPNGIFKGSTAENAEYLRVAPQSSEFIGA

`COc1ccccc1C(=O)NCc1ccc(-c2nn(C[C@@H]3CCCNC3)c(N)c2C(N)=O)cc1` [Example 38, 5-amino-3-[4-[[(2-methoxybenzoyl)amino]methyl]phenyl]-1-[[(3R)-3-piperidyl]methyl]pyrazole-4-carboxamide]: the IC50 in experiment [1] was above 10 µM; in experiment [2] it was above 10 µM; in experiment [3] it was 1 to 10 µM; on Recombinant EGFR it was above 10 µM.

For the compound `COc1ccc(F)cc1C(=O)NCc1ccc(-c2nn(C3CCCOC3)c(N)c2C(N)=O)c(F)c1F` (stereo not drawn) [Example 159, 5-amino-3-[2,3-difluoro-4-[[(5-fluoro-2-methoxy-benzoyl)amino]methyl]phenyl]-1-tetrahydropyran-3-yl-pyrazole-4-carboxamide], the IC50 in experiment [1] is 0.01 to 0.1 µM; in experiment [2], below 0.01 µM; in experiment [3] it was below 0.01 µM; at Recombinant EGFR it was above 10 µM.

Regarding `COc1ccccc1C(=O)NCc1cc(F)c(-c2nn(C3CCCOC3)c(N)c2C(N)=O)cc1F` (stereo not drawn) [Example 151, 5-amino-3-[2,5-difluoro-4-[[(2-methoxybenzoyl)amino]methyl]phenyl]-1-tetrahydropyran-3-yl-pyrazole-4-carboxamide], the IC50 was 0.1 to 1 µM in experiment [1], below 0.01 µM in experiment [2], below 0.01 µM in experiment [3] and 1 to 10 µM on Recombinant EGFR.

Turning to `COc1ccc(F)cc1C(=O)NCc1ccc(-c2nn(CC(F)(F)F)c(N)c2C(N)=O)cc1F` [Example 128, 5-amino-3-[3-fluoro-4-[[(5-fluoro-2-methoxy-benzoyl)amino]methyl]phenyl]-1-(2,2,2-trifluoroethyl)pyrazole-4-carboxamide], the IC50 is 0.01 to 0.1 µM in experiment [1], below 0.01 µM in experiment [2], below 0.01 µM in experiment [3] and 1 to 10 µM on Recombinant EGFR.

With `COc1ccccc1C(=O)NCc1ccc(-c2nn(C3CCC(O)CC3)c(N)c2C(N)=O)cc1` (single isomer, unassigned) [Example 34b, 5-Amino-1-(4-hydroxycyclohexyl)-3-[4-[[(2-methoxybenzoyl)amino]methyl]phenyl]pyrazole-4-carboxamide], the IC50 is 0.01 to 0.1 µM in experiment [1], below 0.01 µM in experiment [2], below 0.01 µM in experiment [3] and 1 to 10 µM on Recombinant EGFR.

As to `COc1ccc(F)cc1C(=O)NCc1ccc(-c2nn(C3CCOC3)c(N)c2C(N)=O)cc1F` (stereo not drawn) [Example 119, 5-amino-3-[3-fluoro-4-[[(5-fluoro-2-methoxy-benzoyl)amino]methyl]phenyl]-1-tetrahydrofuran-3-yl-pyrazole-4-carboxamide], the IC50 was 0.01 to 0.1 µM in experiment [1], below 0.01 µM in experiment [2], below 0.01 µM in experiment [3] and 1 to 10 µM at Recombinant EGFR.

As for `COc1ccccc1C(=O)NCc1ccc(-c2nn(CC(=O)C(C)(C)C)c(N)c2C(N)=O)cc1` [Example 10, 5-Amino-1-(3,3-dimethyl-2-oxo-butyl)-3-[4-[[(2-methoxybenzoyl)amino]methyl]phenyl]pyrazole-4-carboxamide], the IC50 in experiment [1] lay in the range of 0.1 to 1 µM; in experiment [2] it was 0.01 to 0.1 µM; in experiment [3], 0.01 to 0.1 µM; at Recombinant EGFR it was 1 to 10 µM.

On to `COc1ccccc1C(=O)NCc1c(F)cc(-c2nn(C3CCCC3)c(N)c2C(N)=O)cc1F` [Example 138, 5-amino-1-cyclopentyl-3-[3,5-difluoro-4-[[(2-methoxybenzoyl)amino]methyl]phenyl]pyrazole-4-carboxamide], for which the IC50 in experiment [1] is 0.1 to 1 µM; in experiment [2] it was 0.01 to 0.1 µM; in experiment [3], 0.01 to 0.1 µM; on Recombinant EGFR it was above 10 µM.

Consider `COc1ccccc1C(=O)NCc1ccc(-c2nn(C(C)C3CC3)c(N)c2C(N)=O)cc1` (stereo not drawn) [Example 131, 5-amino-1-(1-cyclopropylethyl)-3-[4-[[(2-methoxybenzoyl)amino]methyl]phenyl]pyrazole-4-carboxamide], for which the IC50 is 0.01 to 0.1 µM in experiment [1], below 0.01 µM in experiment [2], below 0.01 µM in experiment [3] and 0.1 to 1 µM at Recombinant EGFR.

As for `COc1ccc(F)cc1C(=O)NCc1ccc(-c2nn(C3CCNCC3(F)F)c(N)c2C(N)=O)cc1` (stereo not drawn) [Example 186, 5-amino-1-(3,3-difluoro-4-piperidyl)-3-[4-[[(5-fluoro-2-methoxy-benzoyl)amino]methyl]phenyl]pyrazole-4-carboxamide], the IC50 was 0.01 to 0.1 µM in experiment [1], below 0.01 µM in experiment [2], below 0.01 µM in experiment [3] and 1 to 10 µM on Recombinant EGFR.

With `COc1ccccc1C(=O)NCc1cc(F)c(-c2nn(C3CCOC3)c(N)c2C(N)=O)cc1F` (stereo not drawn) [Example 152, 5-amino-3-[2,5-difluoro-4-[[(2-methoxybenzoyl)amino]methyl]phenyl]-1-tetrahydrofuran-3-yl-pyrazole-4-carboxamide], the IC50 in experiment [1] was 0.1 to 1 µM; in experiment [2], 0.01 to 0.1 µM; in experiment [3] it was 0.01 to 0.1 µM; on Recombinant EGFR, above 10 µM.

As for `COc1ccccc1C(=O)NCc1ccc(-c2nn(C3CCCC3)c(N)c2C(N)=O)cc1C` [Example 62, 5-amino-1-cyclopentyl-3-[4-[[(2-methoxybenzoyl)amino]methyl]-3-methyl-phenyl]pyrazole-4-carboxamide], the IC50 in experiment [1] is 0.01 to 0.1 µM; in experiment [2], below 0.01 µM; in experiment [3], below 0.01 µM; at Recombinant EGFR it was 0.1 to 1 µM.

Take `COc1ccccc1C(=O)NCc1ccc(-c2nn([C@@H]3CCOC3)c(N)c2C(N)=O)cc1` [Example 83b, 5-amino-3-[4-[[(2-methoxybenzoyl)amino]methyl]phenyl]-1-[(3R)-tetrahydrofuran-3-yl]pyrazole-4-carboxamide]: the IC50 in experiment [1] is 0.01 to 0.1 µM; in experiment [2], below 0.01 µM; in experiment [3] it was below 0.01 µM; at Recombinant EGFR, 1 to 10 µM.

Turning to `COc1ccccc1C(=O)NCc1ccc(-c2nn(C3CCCC(=O)C3)c(N)c2C(N)=O)cc1` (stereo not drawn) [Example 12, 5-amino-3-[4-[[(2-methoxybenzoyl)amino]methyl]phenyl]-1-(3-oxocyclohexyl)pyrazole-4-carboxamide], the IC50 was 1 to 10 µM in experiment [1], 0.1 to 1 µM in experiment [2], 0.1 to 1 µM in experiment [3] and above 10 µM at Recombinant EGFR.

Regarding `COc1ccc(F)cc1C(=O)NCc1cc(F)c(-c2nn(C3CCOCC3)c(N)c2C(N)=O)cc1F` [Example 146, 5-amino-3-[2,5-difluoro-4-[[(5-fluoro-2-methoxy-benzoyl)amino]methyl]phenyl]-1-tetrahydropyran-4-yl-pyrazole-4-carboxamide], the IC50 was 0.1 to 1 µM in experiment [1], below 0.01 µM in experiment [2], below 0.01 µM in experiment [3] and above 10 µM on Recombinant EGFR.

In the case of `COc1ccccc1C(=O)NCc1ccc(-c2nn(C3CCOCC3)c(N)c2C(N)=O)cc1` [Example 64, 5-amino-3-[4-[[(2-methoxybenzoyl)amino]methyl]phenyl]-1-tetrahydropyran-4-yl-pyrazole-4-carboxamide], the IC50 in experiment [1] is 0.01 to 0.1 µM; in experiment [2] it was below 0.01 µM; in experiment [3], below 0.01 µM; on Recombinant EGFR it was 0.1 to 1 µM.

Turning to `COc1ccccc1C(=O)NCc1ccc(-c2nn(C3CCOC(C)C3)c(N)c2C(N)=O)cc1` (mixture of isomers) [Example 85, 5-amino-3-[4-[[(2-methoxybenzoyl)amino]methyl]phenyl]-1-(2-methyltetrahydropyran-4-yl)pyrazole-4-carboxamide], the IC50 is 0.01 to 0.1 µM in experiment [1], below 0.01 µM in experiment [2], below 0.01 µM in experiment [3] and 0.1 to 1 µM at Recombinant EGFR.

As to `COc1ccc(F)cc1C(=O)NCc1ccc(-c2nn(C(C3CCCCC3)C(F)(F)F)c(N)c2C(N)=O)cc1` (stereo not drawn) [Example 192, 5-amino-1-(1-cyclohexyl-2,2,2-trifluoro-ethyl)-3-[4-[[(5-fluoro-2-methoxy-benzoyl)amino]methyl]phenyl]pyrazole-4-carboxamide], the IC50 is 0.1 to 1 µM in experiment [1], 0.01 to 0.1 µM in experiment [2], 0.01 to 0.1 µM in experiment [3] and 1 to 10 µM at Recombinant EGFR.

As to `COc1ccccc1C(=O)NCc1ccc(-c2nn(C3CCC(C(=O)O)CC3)c(N)c2C(N)=O)cc1` (mixture of isomers) [Example 74, 4-[5-amino-4-carbamoyl-3-[4-[[(2-methoxybenzoyl)amino]methyl]phenyl]pyrazol-1-yl]cyclohexanecarboxylic acid], the IC50 is 1 to 10 µM in experiment [1], below 0.01 µM in experiment [2], below 0.01 µM in experiment [3] and 0.1 to 1 µM at Recombinant EGFR.

For the compound `COc1ccc(F)cc1C(=O)NCc1ccc(-c2nn(C3CNCC3(F)F)c(N)c2C(N)=O)cc1` (stereo not drawn) [Example 169, 5-amino-1-(4,4-difluoropyrrolidin-3-yl)-3-[4-[[(5-fluoro-2-methoxy-benzoyl)amino]methyl]phenyl]pyrazole-4-carboxamide], the IC50 is 0.01 to 0.1 µM in experiment [1], below 0.01 µM in experiment [2], below 0.01 µM in experiment [3] and 1 to 10 µM on Recombinant EGFR.

Consider `COc1ccccc1C(=O)NCc1ccc(-c2nn(C3CCOCC3)c(N)c2C(N)=O)c(F)c1` [Example 99, 5-amino-3-[2-fluoro-4-[[(2-methoxybenzoyl)amino]methyl]phenyl]-1-tetrahydropyran-4-yl-pyrazole-4-carboxamide], for which the IC50 is 0.1 to 1 µM in experiment [1], 0.01 to 0.1 µM in experiment [2], below 0.01 µM in experiment [3] and above 10 µM at Recombinant EGFR.
